# Patent publication US5916869A, “Method of treating birds in ovo” (North Carolina State University, priority 1997, dated 1999)
# Assays:
# [1] = Broiler chick Feed Conversion Ratio (FCR) after in ovo administration; format: in vivo, broiler chicks
# Experimental: (§1) To test this hypothesis, the following study was carried out: Four hundred and sixty eggs were randomly divided into two groups and administered either saline (control) or PYY (600 μg/kg egg weight) into the air cell on day 18 of incubation. At hatching 420 chicks were vent sexed, wing-banded, weighed and randomly placed by treatment and sex into 60 pens of 7 chicks each. Pens were equipped with chick founts, nipple drinkers, and feeders. […] The light cycle was 23 light and 1 dark for the entire experiment.
# (§2) Chicks were fed a starter diet (22% CP) for the first 3 weeks and a grower diet (20% CP) for the remaining 3 weeks. Individual chicks were weighed weekly and pen feed consumption recorded as feeders were refilled. At week six, all birds were weighed and euthanized with CO2. Data were statistically analyzed using the General Linear Models Procedure of SAS (1988) with treatment, sex, room and pen as the main effects. Differences were considered significant at P<0.05.
# (§3) Weight gain and Feed Conversion Ratio (FCR) were evaluated in broiler chicks treated in ovo with PYY as described in Example 1. Although there were sex differences (P<0.05) for many of the growth and performance parameters, there were no sex x treatment interactions (P<0.05). Therefore, data from both sexes was combined.
# [2] = Broiler chick body weight after in ovo administration; format: in vivo, broiler chicks
# Experimental: as §1, §2, §3
# [3] = in vivo
# Experimental: as §1, §2, §3
# [4] = test system: jejunal glucose transport; conditions: cited from earlier work; for glucose absorption: young growing mice, exogenous administration
Substance,"FCR, less than chicks from saline treated eggs ([1]; one week of age, 600 μg/kg egg weight in ovo) [%]","FCR vs saline control (FIG. 2) ([1]; week 1, in ovo injection)","FCR vs control ([1]; weeks 3 and 6, data not shown)","body weights vs saline control (FIG. 1) ([2]; hatch and week 1 of age, in ovo injection)","body weight, heavier than chicks from control eggs ([2]; week 1, 600 μg/kg egg weight into air cell on day 18 of incubation, vs saline) [%]","broiler weights vs control ([2]; weeks 3 and 6, data not shown)",Mortality [3],"Mortality, difference between treatments [3]",active jejunal glucose transport ([4]; mice treated with PYY),intestinal energy expenditure ([4]; mice treated with PYY),passive transport rates ([4]; mice treated with PYY),glucose absorption [4]
"PYY: 36 amino acid peptide hormone produced by L type endocrine cells, member of the pancreatic polypeptide family; term covers PYY-I and PYY-II [Peptide YY]",3.99,significantly lower (P<0.05),No differences,significantly (P<0.05) greater,2.7,No statistical differences,less than 1%,did not differ significantly between treatments,increase in active jejunal glucose transport,without any increase in intestinal energy expenditure,without a corresponding increase in passive transport rates,increases glucose absorption
"epidermal growth factor (NSDSECPLSHDGYCLHDGVCMYIEALDKYACNCVVGYIGERCQYRDLKWWELR; Epidermal growth factor; UniProt P01133 971-1023, looked up) [EGF, epidermal growth factor, peptide administered in ovo as comparison treatment]",,,,,,,,,,,,increases glucose absorption
